Consider three molecules from US9314510B2, “Human laminin α2 chain LG3 domain and active peptides promoting cell adhesion, spreading, migration, and neurite outgrowth” (SNU R&DB Foundation, priority 2011, dated 2016).

For assay [1], the system named is NIH/3T3 cells. The assay is described as follows: Cell adhesion to Ln2-LG3-P2-coated plates, NIH/3T3. In kind it is cell-based, mouse. The note with it: 62.5 μg/mL, 1 h. The source says:
The mouse embryo fibroblast cell line NIH/3T3 was purchased from the American Type Culture Collection (Manassas, Va.) and cultured in Dulbecco's modified Eagle's medium (DMEM) containing 10% FBS.

In assay [2] the test system is CV-1 cells. Briefly: Cell adhesion to Ln2-LG3-P2-coated plates, CV-1. It counts as cell-based, African green monkey. Conditions: 62.5 μg/mL, 1 h. From the text:
The normal African green monkey kidney fibroblast cell line CV-1 was purchased from the American Type Culture Collection (Manassas, Va.) and cultured in DMEM containing 10% FBS.

The test system of assay [3] is normal human dermal fibroblasts (NHDF). Briefly: Cell adhesion to Ln2-LG3-P2-coated plates, NHDF. It counts as cell-based. The note with it: NHDF at passage 4, 62.5 μg/mL, 1 h. The procedure: Normal human dermal fibroblasts (NHDF) isolated from hypodermal tissue of normal human skin were cultured in DMEM containing antibiotics and 10% FBS. Cells at passage 4 were used for the following experiments.

Assay [4] deals with PKCδ. The assay is described as follows: Tyrosine phosphorylation of PKCδ (immunoprecipitation and Western blotting). It counts as cell-based, rat. Conditions: PC12 cells on coated dishes, 30 min. As to the method: PC12 cells were incubated on dishes coated with laminin, rLG3, or the Ln2-LG3-P2 peptide for 30 min and the interaction of PKCδ with phosphotyrosine was examined using immunoprecipitation and Western blotting.
A general note: Immunoblotting shows a protein as a band on a membrane.

Assay [5] concerns PC12 cells. Briefly: Cell adhesion assay on coated plates (crystal violet, absorbance 570 nm). In kind it is cell-based, rat. The note with it: 1 h, serum-free; for cell adhesion: PC12 cells on coated plates, laminin 5 μg/mL, rLG proteins 25 μg/mL, peptides 62.5 μg/mL (0 to 125 μg/mL in FIG. 2B). As to the method:
The cell adhesion assay was performed as described in a paper published previously by the present inventors (Kim, J. M., et al, Exp. Cell Res, 2005).
Specifically, 24-well culture plates (Nunc, Denmark) were coated with 5 μg/mL human placental laminin (Sigma-Aldrich, St. Louis, Mo.) or 25 μg/mL rLG domain proteins for 12 h at 4° C. The peptides were also coated on the plates by drying for 12 h at room temperature. The substrate-coated plates were blocked with 1% heat-inactivated bovine serum albumin (BSA) in PBS for 1 h at 37° C. and then washed with PBS.
The cells were trypsinized with trypsin/EDTA and resuspended in serum-free culture medium. The cells were added at a density of 2×10^5 cells/500 μL to each plate and incubated in serum-free culture medium for 1 h at 37° C. After incubation, unattached cells were removed by rinsing twice with PBS. The attached cells were fixed with 10% formalin for 15 min and then stained with 0.5% crystal violet for 1 h. Plates were gently washed with distilled water three times and dissolved with 2% SDS for 5 min. Absorbance was measured at 570 nm using a microplate reader (BioRad).
First, PC12 cells were cultured on plates coated with varying amounts of five kinds of Ln2-PG3 peptides and then cell adhesion was observed. The peptides were coated in concentrations ranging from 0 to 125 μg/mL on plates by drying them for 12 h at room temperature.
The present inventors compared the cellular activities of Ln2-LG3-P2 peptide to scrambled peptide (SEQ ID NO:20, NWEIRCIPGNPF) of Ln2-LG3-P2 peptide and Ln2-LG3-P1 peptide to Ln2-LG3-P5 peptide at a concentration of 62.5 μg/mL where the cell adhesion activity was the maximum. […] PC12 cells were cultured on plates which were coated in the same way for 3 h in serum-free medium and the cell spreading was observed.
(§1) Specifically, to observe cell adhesion, spreading, migration, and neurite outgrowth promotion, the methods described in Experimental examples <2-1> to <2-3> were used and PC12 cells were cultured on plates coated with laminin (5 μg/mL), rLG3 (25 μg/mL), and rLG3-M1 (25 μg/mL) and observed. To observe cell adhesion, PC12 cells were incubated on the coated plates for 1 h and to observe cell spreading, PC12 cells were incubated on the coated plates for 3 h. To observe cell migration, PC12 cells were incubated on the coated plates for […].
To measure cell adhesion, spreading, migration, and neurite outgrowth promotive activities of PC12 cells using the prepared synthetic peptides that are N- and C-terminal truncated or C-terminal added peptides of the Ln2-LG3-P2 peptide, peptides described in Table 1 were coated onto plates at 62.5 μg/mL and PC12 cells were seeded thereon.

In assay [6] the test system is PC12 cells. Briefly: Cell migration assay (transwell migration chambers). It counts as cell-based, rat. Conditions: transwell filters coated with laminin 5 μg/mL, rLG proteins 25 μg/mL or peptides 62.5 μg/mL, 24 h. The procedure:
Cell migration assays were performed using transwell migration chambers of 8 μm in pore size (Corning Inc., NY) as described in a paper published previously by the present inventors (Kim, J. M., Min, S. K., Kim, H., Kang, H. K., Jung, S. Y., Lee, S. H., Choi, Y., Roh, S., Jeong, D., and Min, B. M. (2007) Int. J. Mol. Med.).
The lower sides of transwell filters were coated with laminin (5 μg/mL) or rLG proteins (25 μg/mL) for 12 h at 4° C. The lower sides of transwell filters were blocked with 1% BSA in PBS for 1 h at 37° C. Cells were suspended at a density of 4×10^5 cells/mL in RPMI 1640 medium containing 0.5% FBS and 0.1% BSA. 100 μL of this suspension was seeded in the upper chamber of the transwell filter. Cells were allowed to migrate for 24 h at 37° C. and then fixed with 10% formalin for 15 min and stained with 0.5% crystal violet. Non-migrated cells in the upper chamber of transwell filters were removed with a cotton swab, viewed under a light microscope, and counted.
as §1

In assay [7] the test system is PC12 cells. The assay is described as follows: Inhibition of cell migration to rLG3 by peptide pretreatment. It counts as cell-based, rat. The note with it: PC12 cells pretreated with 500 μg/mL peptide, transwell coated with rLG3 25 μg/mL, 24 h. As to the method: PC12 cells were pretreated with 500 μg/mL of Ln2-LG3-P1, Ln2-LG3-P2, Ln2-LG3-P3, Ln2-LG3-P4, Ln2-LG3-P5 and SP (scramble peptide) (SEQ ID NO:20) for 10 min at room temperature and then cultured on plates coated with rLG3 (25 μg/mL) in serum-free medium. To observe cell adhesion, PC12 cells were incubated on the coated plates for 1 h and to observe cell spreading, PC12 cells were incubated on the coated plates for 3 h. To observe cell migration, cells were seed into the upper chamber of transwell filters coated with rLG3 (25 μg/mL) and cultured for 24 h. Cell migration was quantified by counting the number of cells that had migrated through the filter.

Ends that are not written are not given here.

As for “RNIPPFEGCIWN (RNIPPFEGCIWN-NH2; listed as Homo sapiens) [Ln2-LG3-P2, 12-mer peptide, position 2675 to 2686 in human laminin α2 chain]”, the cell adhesion activity entry in assay [1], in assay [2] and in assay [3] was “strong cell adhesion activity” throughout. Also, the “tyrosine phosphorylation of PKCδ” value in assay [4] was “increased”. In assay [5], the cell adhesion result is on record as “promoted the cell adhesion”. Further, the “coating concentration at which cell adhesion activity reached the maximum level” value in assay [5] (PC12 cells) came to 62.5 µg/mL. Also, in assay [6], the cell migration result is listed as “comparable to that of rLG3”. Also, the “inhibition of cell migration to rLG3 protein” value in assay [7] is “inhibited cell spreading and migration”.

Consider laminin [reference compound], for which the “tyrosine phosphorylation of PKCδ” value in assay [4] was “increased”. Moreover, the cell adhesion entry in assay [5] is given as “promoted cell adhesion”. The cell migration result in assay [6] is “promoted cell migration”.

B1: rLG3: recombinant His6-tagged human laminin α2 chain LG3 domain, amino acids 2537 to 2745 (protein, listed as Homo sapiens)
chain: VELSPVPIDVGTEINLSFSTKNESGIILLGSGGTPAPPRRKRRQTGQAYYVILLNRGRLEVHLSTGARTMRKIVIRPEPNLFHDGREHSVHVERTRGIFTVQVDENRRYMQNLTVEQPIEVKKLFVGGAPPEFQPSPLRNIPPFEGCIWNLVINSVPMDFARPVSFKNADIGRCAHQKLREDEDGAAPAEIVIQPEPVPTPAFPTPTPV
modifications: His6 tag
For B1, in assay [4], the “tyrosine phosphorylation of PKCδ” value is “increased”. Moreover, the cell adhesion entry in assay [5] was “adhered to rLG1, rLG3, and rLG4 in a dose-dependent manner”. The cell migration entry in assay [6] is recorded as “induced cell migration significantly”.
